system: ACHN; experiment: Cytotoxic activity against human ACHN bulk cells incubated for 72 hrs by Cell-titer-Glo luminescence assay; assay type: functional, cell-based; conditions: not given

Row | Structure (SMILES) | IC50 [µM]
1 | CCN(CC)CCNC(=O)c1c(C)[nH]c(/C=C2\C(=O)Nc3ccc(-c4csc(-c5ccc(O)cc5)n4)cc32)c1C | 1.38
2 | COc1ncc(-c2cccc3c2NC(=O)/C3=C\c2[nH]c(C)cc2C)cn1 | 21.9
3 | Cc1cc(C)c(/C=C2\C(=O)Nc3ccc(-c4csc(C5CCNCC5)n4)cc32)[nH]1 | 1.56
4 | Cc1cc(C)c(/C=C2\C(=O)Nc3ccc(-c4csc(C5CCCNC5)n4)cc32)[nH]1 (stereo not given) | 1.64
5 | CCN(CC)CCNC(=O)c1c(C)[nH]c(/C=C2\C(=O)Nc3c2cccc3-c2cncnc2)c1C | 16.4
6 | CCN(CC)CCNC(=O)c1c(C)[nH]c(/C=C2\C(=O)Nc3ccc(-c4ccc(-c5ccccc5)o4)cc32)c1C | 3.66

system: FaDu; experiment: Cytotoxic activity against human FADU cancer stem cells incubated for 72 hrs by Cell-titer-Glo luminescence assay; assay type: functional, cell-based; conditions: not given

Row | Structure (SMILES) | IC50 [µM]
7 | Cc1nc(-c2ccccc2)oc1-c1ccc2c(c1)NC(=O)/C2=C\c1[nH]c(C)c(C(=O)N2CCN(C)CC2)c1C | 1.6
8 | CCN(CC)CCNC(=O)c1c(C)[nH]c(/C=C2\C(=O)Nc3ccc(-c4csc(-c5ccc(O)cc5)n4)cc32)c1C | 1.85
9 | Cc1cc(C)c(/C=C2\C(=O)Nc3ccc(-c4csc(C5CCNCC5)n4)cc32)[nH]1 | 0.43
10 | Cc1cc(C)c(/C=C2\C(=O)Nc3ccc(-c4csc(C5CCCNC5)n4)cc32)[nH]1 (stereo not given) | 0.48
11 | CCN(CC)CCNC(=O)c1c(C)[nH]c(/C=C2\C(=O)Nc3c2cccc3-c2cncnc2)c1C | 6.73
12 | CCN(CC)CCNC(=O)c1c(C)[nH]c(/C=C2\C(=O)Nc3ccc(-c4ccc(-c5ccccc5)o4)cc32)c1C | 1.41

biological target: T1, Ribosomal protein S6 kinase (Homo sapiens) (UniProt P51812+Q9UBS0+O75676+Q15349+O75582+P23443+Q9UK32+Q15418); experiment: Inhibition of RPS6 kinase in human HeLa cells assessed as p-RPS6 Ser240/244 phosphorylation level at 5 uM incubated for 6 hrs by SDS-PAGE based chemiluminescence assay; assay type: cell-based; parameters: scale not given: the % may be the effect or the level left; conditions: not given

Row | Structure (SMILES) | Activity [%]
13 | Cc1nc(-c2ccccc2)oc1-c1ccc2c(c1)NC(=O)/C2=C\c1[nH]c(C)c(C(=O)N2CCN(C)CC2)c1C | 21
14 | CCN(CC)CCNC(=O)c1c(C)[nH]c(/C=C2\C(=O)Nc3ccc(-c4csc(-c5ccc(O)cc5)n4)cc32)c1C | 88
15 | Cc1cc(C)c(/C=C2\C(=O)Nc3ccc(-c4csc(C5CCNCC5)n4)cc32)[nH]1 | 76
16 | CCN(CC)CCNC(=O)c1c(C)[nH]c(/C=C2\C(=O)Nc3c2cccc3-c2cncnc2)c1C | 72
17 | CCN(CC)CCNC(=O)c1c(C)[nH]c(/C=C2\C(=O)Nc3ccc(-c4ccc(-c5ccccc5)o4)cc32)c1C | 64

The remaining lines, values ahead:

Row | Activity [%] | Structure (SMILES)
18 | 54 | COc1ncc(-c2cccc3c2NC(=O)/C3=C\c2[nH]c(C)cc2C)cn1
19 | 34 | Cc1cc(C)c(/C=C2\C(=O)Nc3ccc(-c4csc(C5CCCNC5)n4)cc32)[nH]1 (stereo not given)

biological target: AMP-activated protein kinase, AMPK (Homo sapiens) (UniProt P54646+O43741+P54619+Q9UGJ0+Q9Y478+Q13131+Q9UGI9); experiment: Inhibition of AMPK in human HeLa cells assessed as kinase phosphorylation level at 5 uM incubated for 6 hrs by SDS-PAGE based chemiluminescence assay; assay type: cell-based; parameters: scale not given: the % may be the effect or the level left; conditions: not given

Row | Structure (SMILES) | Activity [%]
20 | Cc1nc(-c2ccccc2)oc1-c1ccc2c(c1)NC(=O)/C2=C\c1[nH]c(C)c(C(=O)N2CCN(C)CC2)c1C | 103
21 | CCN(CC)CCNC(=O)c1c(C)[nH]c(/C=C2\C(=O)Nc3ccc(-c4csc(-c5ccc(O)cc5)n4)cc32)c1C | 47
22 | Cc1cc(C)c(/C=C2\C(=O)Nc3ccc(-c4csc(C5CCNCC5)n4)cc32)[nH]1 | 47
23 | CCN(CC)CCNC(=O)c1c(C)[nH]c(/C=C2\C(=O)Nc3c2cccc3-c2cncnc2)c1C | 60
24 | CCN(CC)CCNC(=O)c1c(C)[nH]c(/C=C2\C(=O)Nc3ccc(-c4ccc(-c5ccccc5)o4)cc32)c1C | 144

Further lines, results first:

Row | Activity [%] | Structure (SMILES)
25 | 96 | COc1ncc(-c2cccc3c2NC(=O)/C3=C\c2[nH]c(C)cc2C)cn1
26 | 69 | Cc1cc(C)c(/C=C2\C(=O)Nc3ccc(-c4csc(C5CCCNC5)n4)cc32)[nH]1 (stereo not given)

system: ACHN; experiment: Cytotoxic activity against human ACHN cancer stem cells incubated for 72 hrs by Cell-titer-Glo luminescence assay; assay type: functional, cell-based; conditions: not given

Row | Structure (SMILES) | IC50 [µM]
27 | Cc1nc(-c2ccccc2)oc1-c1ccc2c(c1)NC(=O)/C2=C\c1[nH]c(C)c(C(=O)N2CCN(C)CC2)c1C | 0.5
28 | CCN(CC)CCNC(=O)c1c(C)[nH]c(/C=C2\C(=O)Nc3ccc(-c4csc(-c5ccc(O)cc5)n4)cc32)c1C | 0.5
29 | COc1ncc(-c2cccc3c2NC(=O)/C3=C\c2[nH]c(C)cc2C)cn1 | 17.5
30 | Cc1cc(C)c(/C=C2\C(=O)Nc3ccc(-c4csc(C5CCNCC5)n4)cc32)[nH]1 | 0.09
31 | Cc1cc(C)c(/C=C2\C(=O)Nc3ccc(-c4csc(C5CCCNC5)n4)cc32)[nH]1 (stereo not given) | 0.05
32 | CCN(CC)CCNC(=O)c1c(C)[nH]c(/C=C2\C(=O)Nc3c2cccc3-c2cncnc2)c1C | 10.9
33 | CCN(CC)CCNC(=O)c1c(C)[nH]c(/C=C2\C(=O)Nc3ccc(-c4ccc(-c5ccccc5)o4)cc32)c1C | 0.25

system: FaDu; experiment: Cytotoxic activity against human FADU bulk cells incubated for 72 hrs by Cell-titer-Glo luminescence assay; assay type: functional, cell-based; conditions: not given

Row | Structure (SMILES) | IC50 [µM]
34 | CCN(CC)CCNC(=O)c1c(C)[nH]c(/C=C2\C(=O)Nc3ccc(-c4csc(-c5ccc(O)cc5)n4)cc32)c1C | 0.7
35 | COc1ncc(-c2cccc3c2NC(=O)/C3=C\c2[nH]c(C)cc2C)cn1 | 20.8
36 | Cc1cc(C)c(/C=C2\C(=O)Nc3ccc(-c4csc(C5CCNCC5)n4)cc32)[nH]1 | 1.62
37 | Cc1cc(C)c(/C=C2\C(=O)Nc3ccc(-c4csc(C5CCCNC5)n4)cc32)[nH]1 (stereo not given) | 1.58
38 | CCN(CC)CCNC(=O)c1c(C)[nH]c(/C=C2\C(=O)Nc3c2cccc3-c2cncnc2)c1C | 36.3
39 | CCN(CC)CCNC(=O)c1c(C)[nH]c(/C=C2\C(=O)Nc3ccc(-c4ccc(-c5ccccc5)o4)cc32)c1C | 3.09

system: A549; experiment: Cytotoxic activity against human A549 bulk cells incubated for 72 hrs by Cell-titer-Glo luminescence assay; assay type: functional, cell-based; conditions: A549, 72 h

Row | Structure (SMILES) | IC50 [µM]
40 | CCN(CC)CCNC(=O)c1c(C)[nH]c(/C=C2\C(=O)Nc3ccc(-c4csc(-c5ccc(O)cc5)n4)cc32)c1C | 3.06
41 | COc1ncc(-c2cccc3c2NC(=O)/C3=C\c2[nH]c(C)cc2C)cn1 | 17.7
42 | Cc1cc(C)c(/C=C2\C(=O)Nc3ccc(-c4csc(C5CCNCC5)n4)cc32)[nH]1 | 1.29
43 | Cc1cc(C)c(/C=C2\C(=O)Nc3ccc(-c4csc(C5CCCNC5)n4)cc32)[nH]1 (stereo not given) | 1.34
44 | CCN(CC)CCNC(=O)c1c(C)[nH]c(/C=C2\C(=O)Nc3c2cccc3-c2cncnc2)c1C | 21.5
45 | CCN(CC)CCNC(=O)c1c(C)[nH]c(/C=C2\C(=O)Nc3ccc(-c4ccc(-c5ccccc5)o4)cc32)c1C | 4.3

biological target: Serine/threonine-protein kinase RIO2 (Homo sapiens) (UniProt Q9BVS4); experiment: Inhibition of N-terminal GST-fused full length human recombinant RIOK2 expressed in baculovirus Sf21 cells assessed as reduction in kinase auto-phosphorylation at 1 uM in presence of ATP incubated for 1 hr by ELISA method; conditions: not given
Sequence (Q9BVS4 whole entry, looked up, the tested form may be a part): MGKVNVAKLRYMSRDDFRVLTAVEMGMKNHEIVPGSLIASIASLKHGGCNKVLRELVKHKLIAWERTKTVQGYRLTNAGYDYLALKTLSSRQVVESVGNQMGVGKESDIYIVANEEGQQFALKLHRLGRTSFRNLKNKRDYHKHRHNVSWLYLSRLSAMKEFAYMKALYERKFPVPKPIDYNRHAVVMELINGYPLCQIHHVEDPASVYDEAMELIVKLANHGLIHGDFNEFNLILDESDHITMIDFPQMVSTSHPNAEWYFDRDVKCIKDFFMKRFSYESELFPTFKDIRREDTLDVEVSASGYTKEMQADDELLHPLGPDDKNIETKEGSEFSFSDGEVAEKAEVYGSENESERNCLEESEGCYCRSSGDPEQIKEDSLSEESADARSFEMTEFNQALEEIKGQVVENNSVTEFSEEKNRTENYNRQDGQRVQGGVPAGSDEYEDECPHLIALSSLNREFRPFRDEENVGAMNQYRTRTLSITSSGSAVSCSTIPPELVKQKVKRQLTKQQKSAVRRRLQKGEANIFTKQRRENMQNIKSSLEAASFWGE

Row | inhibition [%] | Structure (SMILES)
46 | 14 | CCN(CC)CCNC(=O)c1c(C)[nH]c(/C=C2\C(=O)Nc3ccc(-c4ccnn4-c4ccccn4)cc32)c1C

biological target: T1, Ribosomal protein S6 kinase (Homo sapiens); experiment: Inhibition of RPS6 kinase in human HeLa cells assessed as p-RPS6 Ser235/236 phosphorylation level at 5 uM incubated for 6 hrs by SDS-PAGE based chemiluminescence assay; assay type: cell-based; parameters: scale not given: the % may be the effect or the level left; conditions: not given

Row | Structure (SMILES) | Activity [%]
47 | Cc1nc(-c2ccccc2)oc1-c1ccc2c(c1)NC(=O)/C2=C\c1[nH]c(C)c(C(=O)N2CCN(C)CC2)c1C | 2
48 | CCN(CC)CCNC(=O)c1c(C)[nH]c(/C=C2\C(=O)Nc3ccc(-c4csc(-c5ccc(O)cc5)n4)cc32)c1C | 79
49 | Cc1cc(C)c(/C=C2\C(=O)Nc3ccc(-c4csc(C5CCNCC5)n4)cc32)[nH]1 | 76
50 | CCN(CC)CCNC(=O)c1c(C)[nH]c(/C=C2\C(=O)Nc3c2cccc3-c2cncnc2)c1C | 71
51 | CCN(CC)CCNC(=O)c1c(C)[nH]c(/C=C2\C(=O)Nc3ccc(-c4ccc(-c5ccccc5)o4)cc32)c1C | 19

Now from value to compound:

Row | Activity [%] | Structure (SMILES)
52 | 57 | COc1ncc(-c2cccc3c2NC(=O)/C3=C\c2[nH]c(C)cc2C)cn1
53 | 6 | Cc1cc(C)c(/C=C2\C(=O)Nc3ccc(-c4csc(C5CCCNC5)n4)cc32)[nH]1 (stereo not given)

system: A549; experiment: Cytotoxic activity against human A549 cancer stem cells incubated for 72 hrs by Cell-titer-Glo luminescence assay; assay type: functional, cell-based; conditions: A549, 72 h

Row | Structure (SMILES) | IC50 [µM]
54 | CCN(CC)CCNC(=O)c1c(C)[nH]c(/C=C2\C(=O)Nc3ccc(-c4csc(-c5ccc(O)cc5)n4)cc32)c1C | 6.99
55 | COc1ncc(-c2cccc3c2NC(=O)/C3=C\c2[nH]c(C)cc2C)cn1 | 34.7
56 | Cc1cc(C)c(/C=C2\C(=O)Nc3ccc(-c4csc(C5CCNCC5)n4)cc32)[nH]1 | 0.88
57 | Cc1cc(C)c(/C=C2\C(=O)Nc3ccc(-c4csc(C5CCCNC5)n4)cc32)[nH]1 (stereo not given) | 1.7
58 | CCN(CC)CCNC(=O)c1c(C)[nH]c(/C=C2\C(=O)Nc3c2cccc3-c2cncnc2)c1C | 27.5
59 | CCN(CC)CCNC(=O)c1c(C)[nH]c(/C=C2\C(=O)Nc3ccc(-c4ccc(-c5ccccc5)o4)cc32)c1C | 8.25

biological target: Serine/threonine-protein kinase RIO2 (Homo sapiens) (UniProt Q9BVS4); experiment: Inhibition of N-terminal GST-fused full length human recombinant RIOK2 expressed in baculovirus Sf21 cells assessed as reduction in kinase auto-phosphorylation at 10 uM in presence of ATP incubated for 1 hr by ELISA method; conditions: not given

Row | inhibition [%] | Structure (SMILES)
60 | 93 | CCN(CC)CCNC(=O)c1c(C)[nH]c(/C=C2\C(=O)Nc3ccc(-c4ccnn4-c4ccccn4)cc32)c1C

Reference: ChEMBL document CHEMBL3727348, “3-(aryl or heteroaryl) methyleneindolin-2-one derivatives as inhibitors of cancer stem cell pathway kinases for the treatment of cancer” (2014)
